Reference: paper PMC7908975, “Antioxidant and Anti-Inflammatory Activity of Citrus Flavanones Mix and Its Stability after In Vitro Simulated Digestion” (Antioxidants, 2021)

Columns and labels:
[1] = tested on: IL-6 release in Caco-2 cells; assay: IL-6 release, IL-1β stimulated Caco-2 transwell model; assay type: cell-based, human; details: 24 h
Experimental: (§1) Experiments were carried out on transwell models (CacoReady™, Readycell, Barcelona, Spain) consisting of Caco-2 cells (8.5 × 10^4 cells/cm^2, passage number 41–58) seeded on polyester microporous filters in 24-well HTS plates (6.5 mm diameter, 0.33 cm^2 area and 0.4 µm of pore size) (Corning Incorporated, Corning, NY, USA). Completed Dulbecco’s Modified Eagle Medium (DMEM), prepared according to Denaro et al., was added on the apical (0.3 mL) and basolateral side (0.9 mL) of the Transwell® insert. After 21 days of culture, Caco-2 cells were completely differentiated and polarized, such that their phenotype resembled the morphological and functional features of mature enterocytes lining the small intestine.
(§2) Before starting with the anti-inflammatory experiments, the monolayer integrity was checked by measuring the trans-epithelial electrical resistance (TEER) with a Millicell® ERS-2 V/ohmmeter (Merck Millipore, Darmstadt, Germany) equipped with STX 100C electrode (World Precision Instruments, Sarasota, FL, USA). Caco-2-plated filters with epithelial resistance ≥800 Ω/cm^2 were used.
(§3) The anti-inflammatory activity of FM and digested FM (DFM) was evaluated on Caco-2 transwell model, according to Tesoriere et al., with some modifications. Briefly, 1.4 mM FM (see Section 2.3) was diluted 140 times in completed DMEM, obtaining a 10 µM FM (DMSO < 0.1%). […]
(§4) IL-6 and IL-8 release were measured by high-sensitivity human ELISA kits (Cymax IL-6 YIF-LF-EK0260 and Cymax IL-8YIF-LF-EK0262, Ab Frontiers, Adipogen Corporation, 9853 Pacific Heights Blvd., Suite L San Diego, CA, USA) according to the manufacturer’s recommendations, whereas NO release was estimated according to Tesoriere et al. by Griess reaction. […] Absorbance was recorded at 550 nm using a microplate reader (Multiskan GO, Thermo Scientific, Waltham, MA, USA). Results were expressed as µM NO extrapolating the results by a reference standard curve of sodium nitrite (1.0–15 µM).

[2] = tested on: IL-8 release in Caco-2 cells; assay: IL-8 release, IL-1β stimulated Caco-2 transwell model; assay type: cell-based, human; details: 24 h
Experimental: as §1, §2, §3, §4

[3] = tested on: NO release in Caco-2 cells; assay: NO release (Griess reaction), IL-1β stimulated Caco-2 transwell model; assay type: cell-based, human; details: 24 h
Experimental: as §1, §2, §3, §4

[4] = In vitro simulated human gastric and duodenal digestion with LC-DAD-ESI-MS/MS quantification; assay type: in vitro ADME; details: with respect to starting FM 10 µM; for DFM (µM): flavanone in duodenal digested flavanones mix: after gastric 2 h plus duodenal 4 h digestion, 37 °C; for GFM (µM): flavanone in gastric digested flavanones mix: after gastric digestion 2 h, pH 2.5, 37 °C
Source text: Based on the results of the preliminary antioxidant and anti-inflammatory screening (see Section 2.2), the most powerful flavanones (neohesperidin, hesperidin, neoeriocitrin, eriocitrin, and hesperetin) were selected in order to prepare a flavanones mix (FM), which was, at first instance, investigated by the same in vitro colorimetric assays (see Section 2.2) in order to evaluate its potency with respect to the single flavanones and to elucidate potential synergistic mechanisms. The following final concentration range of FM were used: FRAP (2.50–20 µM), ORAC (0.08–0.60 µM), TEAC (0.31–2.50 µM), DPPH (1.25–10 µM), ADA (5.0–40 µM), and APA (2.50–20 µM). After that, being the results of the preliminary antioxidant and anti-inflammatory screening of FM very promising, an appropriate concentration was chosen to proceed with the subsequent analyses. In particular, the FM was prepared on the assumption that digested sample, which would then be applied to the Caco-2 cells for the anti-inflammatory experiments, had to contain an equimolar concentration of the five most powerful flavanones (neohesperidin, hesperidin, neoeriocitrin, eriocitrin, and hesperetin) equal to 10 µM, which represents the mean efficacy concentration taking into account the IC50 values obtained in the preliminary antioxidant and anti-inflammatory screening of the FM. At this purpose, stock solutions (14 mM) of flavanones in DMSO were mixed and diluted 10-fold with Milli-Q water to obtain the 1.4 mM FM, which was used to carried out the in vitro simulated human digestion. In vitro gastric and duodenal digestion of FM was carried out according to Trombetta et al. with some modifications. FM solution (1.5 mL) (see Section 2.3), has been dissolved in 7.5 mL of simulated gastric solution containing 0.127 mM egg-phosphatidylcholine and adjusting the pH to 2.5, by 1 M HCl. Gastric pepsin and lipase (9000 U/mL and 60 U/mL, respectively) were added to the mixture starting the gastric digestion phase, which was protracted for 2 h at 37 °C, incubating under continuous stirring (170 rpm) by an Innova 4000 Benchtop Incubator Shaker (New Brunswick Scientific, Edison, NJ, USA). The gastric phase was stopped by the addition of 1M NaOH in order to reach a pH of 7.5, and 6 mL of the previous solution passed to the duodenal digestion phase. Duodenal solution was prepared by adding 2.10 mL of simulated bile solution (6.5 mM phosphatidylcholine, 4 mM cholesterol, 12.5 mM sodium taurocholate, and 12.5 mM sodium glycodeoxycholate) to 5.9 mL of simulated pancreatic juice containing pancreatic lipase (590 U/mL), colipase (3.2 µg/mL), trypsin (11 U/mL), α-chymotrypsin (24 U/mL), and α-amylase (300 U/mL). The duodenal mixture was incubated for 4 h under continuous stirring at 37 °C as described above. At the end, both gastric and duodenal digesta were immediately stored at −80 °C until the subsequent analyses. For quali-quantitative determination of flavanones, gastric and duodenal digesta were extracted with methanol (1:2, v/v) by mixing for 3 min. After that, samples were centrifuged at 12,000× g for 10 min, filtered by a 0.22 µm nylon syringe filter and injected into a liquid chromatograph equipped with a diode-array detector and mass spectrophotometer (LC-DAD-MS system, Agilent technologies, Santa Clara, CA, USA). The chromatographic separation was obtained using a reverse phase column Luna Omega PS C18 (150 × 2.1 mm, 5 µm; Phenomenex, Torrance, CA, USA) by using solvent A (formic acid 0.1% v/v) and solvent B (acetonitrile) as mobile phase according to the following elution gradient: 0 min, 0% B; 3–9 min, 3% B; 9–24 min, 12% B; 24–30 min, 20% B; 30–33 min, 33–43 30% B; 43–66 min 50% di B; 66–81 min 60% di B; 81–86 min 0% di B; 86–90 min 0% di B. […] UV–Vis spectra of flavanones were recorded (190–400 nm) and chromatograms were acquired at 292 nm, maximum flavanones absorption wavelength. […]

[5] = Trolox Equivalent Antioxidant Capacity (TEAC) assay
Experimental: TEAC assay was carried out according to Bazzicalupo et al.. […] Fifty microliters of each flavanone (2.0–64 µM) or trolox as reference compound (2.50–20 µM) were added to 1 mL of the TEAC reagent and incubated at RT in the dark for 6 min. The absorbance was recorded at 734 nm. Based on the results of the preliminary antioxidant and anti-inflammatory screening (see Section 2.2), the most powerful flavanones (neohesperidin, hesperidin, neoeriocitrin, eriocitrin, and hesperetin) were selected in order to prepare a flavanones mix (FM), which was, at first instance, investigated by the same in vitro colorimetric assays (see Section 2.2) in order to evaluate its potency with respect to the single flavanones and to elucidate potential synergistic mechanisms. The following final concentration range of FM were used: FRAP (2.50–20 µM), ORAC (0.08–0.60 µM), TEAC (0.31–2.50 µM), DPPH (1.25–10 µM), ADA (5.0–40 µM), and APA (2.50–20 µM). After that, being the results of the preliminary antioxidant and anti-inflammatory screening of FM very promising, an appropriate concentration was chosen to proceed with the subsequent analyses. […]

[6] = parameters: method as in PMID 19728713; details: as compounds of a bitter orange extract; cited from earlier work
trypsin = assay: Anti-protease activity (APA), anti-tryptic activity; assay type: biochemical
Experimental: The anti-tryptic activity of sample was evaluated according to Smeriglio et al.. Briefly, 200 µL of each flavanone (6.25–140 µM) or diclofenac sodium as reference compound (10–80 µM) were added to 12 µL of trypsin (10 µg/mL) and 188 µL of 25 mM Tris-HCl buffer (pH 7.5). After that, 200 µL of 0.8% casein solution were added and samples incubated for 20 min at 37 °C in a water bath. After that, 400 µL of perchloric acid were added to stop the reaction. The cloudy suspension, due to the protein precipitation, was centrifuged at 3500× g for 10 min and the absorbance of the supernatant was recorded at 280 nm against a blank consisting of deionized water instead of sample. Based on the results of the preliminary antioxidant and anti-inflammatory screening (see Section 2.2), the most powerful flavanones (neohesperidin, hesperidin, neoeriocitrin, eriocitrin, and hesperetin) were selected in order to prepare a flavanones mix (FM), which was, at first instance, investigated by the same in vitro colorimetric assays (see Section 2.2) in order to evaluate its potency with respect to the single flavanones and to elucidate potential synergistic mechanisms. The following final concentration range of FM were used: FRAP (2.50–20 µM), ORAC (0.08–0.60 µM), TEAC (0.31–2.50 µM), DPPH (1.25–10 µM), ADA (5.0–40 µM), and APA (2.50–20 µM). […]

[7] = 10 µM co-treatment with IL-1β 25 ng/mL

| DFM (µM): flavanone in duodenal digested flavanones mix [4] | GFM (µM): flavanone in gastric digested flavanones mix [4] | Compound | IC50 in comparison with reference standard trolox, TEAC [5] | stability after simulated in vitro digestion [6] | further results |
| --- | --- | --- | --- | --- | --- |
| – | – | IL-1β: well-known pro-inflammatory agent used at 25 ng/mL to trigger inflammation (CTR+) | – | – | increase in IL-6 vs CTR− ([1]; 25 ng/mL): ~ 7 folds; increase in IL-8 vs CTR− ([2]; 25 ng/mL): ~ 27 folds; increase in NO release vs CTR− ([3]; 25 ng/mL): ~ 2.5 folds |
| 8.80 ± 0.03 µM | 9.05 ± 0.12 µM | C[C@@H]1O[C@@H](OC[C@H]2O[C@@H](Oc3cc(O)c4c(c3)O[C@H](c3ccc(O)c(O)c3)CC4=O)[C@H](O)[C@@H](O)[C@@H]2O)[C@H](O)[C@H](O)[C@H]1O [Eriocitrin, eriodictyol-7-O-rutinoside] | – | – | – |
| 8.76 ± 0.22 µM | 9.38 ± 0.18 µM | COc1ccc(C2CC(=O)c3c(O)cc(O)cc3O2)cc1O (centres unmarked) [Hesperetin, 3′,5,7-trihydroxy-4′-methoxyflavanone] | a behavior comparable with the reference standard | stable after simulated in vitro digestion | anti-inflammatory activity less than the other tested molecules, protease inhibition (trypsin): about 4 times |
| – | – | C[C@@H]1C[C@H]2[C@@H]3CCC4=CC(=O)C=C[C@]4(C)[C@@]3(F)[C@@H](O)C[C@]2(C)[C@@]1(O)C(=O)CO [Dex, dexamethasone] | – | – | pro-inflammatory activity, IL-6 release vs CTR− ([1]; 10 µM alone, without IL-1β): did not show any pro-inflammatory activity; IL-6 release with respect to positive control (CTR+) [1, 7]: statistically significant decrease (p < 0.001); pro-inflammatory activity, IL-8 release vs CTR− ([2]; 10 µM alone, without IL-1β): did not show any pro-inflammatory activity; inhibition of IL-8 release [2, 7]: ~66%; pro-inflammatory activity, NO release vs CTR− ([3]; 10 µM alone, without IL-1β): did not show any pro-inflammatory activity; inhibition of NO release [3, 7]: ~16% |

| Compound | DFM (µM): flavanone in duodenal digested flavanones mix [4] | GFM (µM): flavanone in gastric digested flavanones mix [4] | IC50 in comparison with reference standard trolox, TEAC [5] | stability after simulated in vitro digestion [6] | further results |
| --- | --- | --- | --- | --- | --- |
| COc1ccc([C@@H]2CC(=O)c3c(O)cc(O[C@@H]4O[C@H](CO[C@@H]5O[C@@H](C)[C@H](O)[C@@H](O)[C@H]5O)[C@@H](O)[C@H](O)[C@H]4O)cc3O2)cc1O [Hesperidin, hesperetin-7-O-rutinoside] | 9.86 ± 0.13 µM | 9.95 ± 0.04 µM | a behavior comparable with the reference standard | stable after simulated in vitro digestion | – |
